Laboratory results from ChEMBL document CHEMBL1145601, “The design and synthesis of diaryl ether second generation HIV-1 non-nucleoside reverse transcriptase inhibitors (NNRTIs) with enhanced potency versus key clinical mutations” (Bioorg Med Chem Lett, 2008).

Columns and labels:
[1] = target: Human immunodeficiency virus type 1 reverse transcriptase (Human immunodeficiency virus 1, UniProt Q72547); assay: Inhibition of HIV1 reverse transcriptase by SPA assay
[2] = target: Human immunodeficiency virus type 1 reverse transcriptase (Human immunodeficiency virus 1, UniProt Q72547, K103N); assay: Inhibition of HIV1 reverse transcriptase K103N mutant by SPA assay
[3] = target: Human immunodeficiency virus type 1 reverse transcriptase (Human immunodeficiency virus 1, UniProt Q72547, Y181C); assay: Inhibition of HIV1 reverse transcriptase Y181C mutant by SPA assay
[4] = system: Human immunodeficiency virus 1; assay: Antiviral activity against HIV1 in human MT4 cells in presence of 50% normal human serum; assay type: functional; settings: Human immunodeficiency virus 1, MT4; read-out: CIC95
[5] = system: Human immunodeficiency virus 1; assay: Antiviral activity against HIV1 in human MT4 cells in RPMI1640 media containing fetal bovine serum; assay type: functional; settings: Human immunodeficiency virus 1, MT4; read-out: CIC95
[6] = Volume of distribution in Sprague-Dawley rat at 10 mg/kg, po and 2 mg/kg, iv; assay type: ADME, organism-based; settings: in vivo
[7] = Volume of distribution in rhesus monkey at 1 mg/kg, iv; assay type: ADME, organism-based, Macaca mulatta; design: dose 1 mg/kg, route intravenous; settings: in vivo
[8] = Oral bioavailability in Sprague-Dawley rat at 10 mg/kg, po and 2 mg/kg, iv; assay type: ADME, organism-based; settings: in vivo
[9] = AUC in Beagle dog at 0.25 mg/kg, iv; assay type: ADME, organism-based, Canis lupus familiaris; design: dose 0.25 mg/kg, route intravenous; settings: plasma
[10] = AUC in rhesus monkey at 1 mg/kg, iv; assay type: ADME, organism-based, Macaca mulatta; design: dose 1 mg/kg, route intravenous; settings: plasma
[11] = AUC in Sprague-Dawley rat at 10 mg/kg, po and 2 mg/kg, iv; assay type: ADME, organism-based; settings: plasma
[12] = system: Human immunodeficiency virus 1; assay: Antiviral activity against HIV1 with RT K101E/G190A mutation in human MT4 cells in presence of 40% normal human serum; assay type: functional, organism-based; settings: Human immunodeficiency virus 1, MT4
[13] = Volume of distribution in Beagle dog at 0.25 mg/kg, iv; assay type: ADME, organism-based, Canis lupus familiaris; design: dose 0.25 mg/kg, route intravenous; settings: in vivo
[14] = system: Human immunodeficiency virus 1; assay: Antiviral activity against HIV1 with RT K103N/G190A mutation in human MT4 cells in presence of 40% normal human serum; assay type: functional, organism-based; settings: Human immunodeficiency virus 1, MT4
[15] = Half life in rhesus monkey at 1 mg/kg, iv; assay type: ADME, organism-based, Macaca mulatta; design: dose 1 mg/kg, route intravenous; settings: in vivo
[16] = Clearance in rhesus monkey at 1 mg/kg, iv; assay type: ADME, organism-based, Macaca mulatta; design: dose 1 mg/kg, route intravenous; settings: in vivo
[17] = system: Human immunodeficiency virus 1; assay: Antiviral activity against HIV1 with RT L100I mutation in human MT4 cells in presence of 40% normal human serum; assay type: functional, organism-based; settings: Human immunodeficiency virus 1, MT4
[18] = system: Human immunodeficiency virus 1; assay: Antiviral activity against HIV1 with RT Y181C mutation in human MT4 cells in presence of 40% normal human serum; assay type: functional, organism-based; settings: Human immunodeficiency virus 1, MT4
[19] = Clearance in Sprague-Dawley rat at 2 mg/kg, iv; assay type: ADME, organism-based; design: dose 2 mg/kg, route intravenous; settings: in vivo
[20] = system: Human immunodeficiency virus 1; assay: Antiviral activity against HIV1 in human MT4 cells in presence of 40% normal human serum; assay type: functional, organism-based; settings: Human immunodeficiency virus 1, MT4
[21] = system: Human immunodeficiency virus 1; assay: Antiviral activity against HIV1 with RT K103N/Y181C/G190A mutation in human MT4 cells in presence of 40% normal human serum; assay type: functional, organism-based; settings: Human immunodeficiency virus 1, MT4
[22] = Clearance in Beagle dog at 0.25 mg/kg, iv; assay type: ADME, organism-based, Canis lupus familiaris; design: dose 0.25 mg/kg, route intravenous; settings: in vivo
[23] = Half life in Beagle dog at 0.25 mg/kg, iv; assay type: ADME, organism-based, Canis lupus familiaris; design: dose 0.25 mg/kg, route intravenous; settings: in vivo
[24] = system: Human immunodeficiency virus 1; assay: Antiviral activity against HIV1 with RT K103N/P225H mutation in human MT4 cells in presence of 40% normal human serum; assay type: functional, organism-based; settings: Human immunodeficiency virus 1, MT4
[25] = system: Human immunodeficiency virus 1; assay: Antiviral activity against HIV1 with RT G190S mutation in human MT4 cells in presence of 40% normal human serum; assay type: functional, organism-based; settings: Human immunodeficiency virus 1, MT4
[26] = system: Human immunodeficiency virus 1; assay: Antiviral activity against HIV1 with RT K103N/Y181C mutation in human MT4 cells in presence of 40% normal human serum; assay type: functional, organism-based; settings: Human immunodeficiency virus 1, MT4
[27] = Half life in Sprague-Dawley rat at 2 mg/kg, iv; assay type: ADME, organism-based; design: dose 2 mg/kg, route intravenous; settings: in vivo
[28] = system: Human immunodeficiency virus 1; assay: Antiviral activity against HIV1 with RT K103N/V179E mutation in human MT4 cells in presence of 40% normal human serum; assay type: functional, organism-based; settings: Human immunodeficiency virus 1, MT4
[29] = system: Human immunodeficiency virus 1; assay: Antiviral activity against HIV1 with RT K103N mutation in human MT4 cells in presence of 10% fetal bovine serum; assay type: functional; settings: Human immunodeficiency virus 1, MT4; read-out: CIC95
[30] = system: Human immunodeficiency virus 1; assay: Antiviral activity against HIV1 with RT G190A mutation in human MT4 cells in presence of 40% normal human serum; assay type: functional, organism-based; settings: Human immunodeficiency virus 1, MT4
[31] = system: Human immunodeficiency virus 1; assay: Antiviral activity against HIV1 with RT Y181C/G190A mutation in human MT4 cells in presence of 40% normal human serum; assay type: functional, organism-based; settings: Human immunodeficiency virus 1, MT4
[32] = system: Human immunodeficiency virus 1; assay: Antiviral activity against HIV1 with RT K103N mutation in human MT4 cells in presence of 40% normal human serum; assay type: functional, organism-based; settings: Human immunodeficiency virus 1, MT4
[33] = system: Human immunodeficiency virus 1; assay: Antiviral activity against HIV1 with RT Y188L mutation in human MT4 cells in presence of 40% normal human serum; assay type: functional, organism-based; settings: Human immunodeficiency virus 1, MT4
[34] = system: Human immunodeficiency virus 1; assay: Antiviral activity against HIV1 with RT Y181C mutation in human MT4 cells in presence of 10% fetal bovine serum; assay type: functional; settings: Human immunodeficiency virus 1, MT4; read-out: CIC95

Work on Cc1cc(C)c(-n2nnnc2SCC(=O)Nc2ccc(S(N)(=O)=O)cc2Cl)c(C)c1 yielded an IC50 [1] of 4.05 nM, an IC50 [2] of 10.4 nM and an IC50 [3] of 34.5 nM. For the same compound, the IC95 [4] was 62 nM and the IC95 [5] was 16 nM.
Compound N#Cc1cc(Cl)cc(Oc2cc(OCc3nc4cccc(Cl)c4o3)ccc2Cl)c1 has an IC50 [1] of 0.59 nM, an IC50 [2] of 1.41 nM and an IC50 [3] of 6.38 nM. It also gave an IC95 [4] of 312 nM and an IC95 [5] of 78 nM.
CS(=O)(=O)c1ccc(NC(=O)COc2ccc(Cl)c(Oc3cc(Cl)cc(C#N)c3)c2)c(Cl)c1 showed an IC50 [1] of 0.99 nM, an IC50 [2] of 1.33 nM and an IC50 [3] of 0.91 nM. The IC95 [4] was 78 nM and the IC95 [5] was 31 nM.
For N#Cc1cc(Cl)cc(Oc2cc(Cl)cc(OCC(=O)Nc3ccc(S(N)(=O)=O)cc3Cl)c2)c1, the IC50 [2] was 3.48 nM, the IC50 [3] was 2.66 nM and the IC95 [4] was 125 nM. For the same compound, the IC95 [5] was 16 nM.
For NS(=O)(=O)c1ccc(NC(=O)COc2cc(Cl)cc(Oc3ccccc3)c2)c(Cl)c1, the IC50 [1] was 10.5 nM, the IC50 [2] was 218 nM and the IC50 [3] was 25 nM.
In the case of N#Cc1cccc(Oc2cc(Cl)cc(OCC(=O)Nc3ccc(S(N)(=O)=O)cc3Cl)c2)c1, the IC50 [1] is reported as 0.96 nM, the IC50 [2] is reported as 14.4 nM and the IC50 [3] is reported as 1.2 nM. For the same compound, the IC95 [4] was 160 nM and the IC95 [5] was 8 nM.
N#Cc1cc(Cl)cc(Oc2cc(OCc3n[nH]c4ccccc34)ccc2Cl)c1 showed a Vd [6] of 2.9 L/kg, a Vd [7] of 7.1 L/kg and a bioavailability [8] of 3.3%. The AUC [9] was 0.4 µM·h, the AUC [10] was 1.7 µM·h and the AUC [11] was 6.2 µM·h. For the same compound, the IC50 [12] was 21 nM, the Vd [13] was 1.2 L/kg and the IC50 [14] was 21.7 nM. For the same compound, the half-life [15] was 8.1 h, the clearance [16] was 24 mL/min/kg and the IC50 [17] was 2.6 nM. The IC50 [18] was 13.8 nM, the clearance [19] was 13.6 mL/min/kg and the IC50 [20] was 4.7 nM. It also gave an IC50 [21] of 171 nM, a clearance [22] of 28.9 mL/min/kg and a half-life [23] of 1.5 h. For the same compound, the IC50 [24] was 29.3 nM, the IC50 [25] was 23.4 nM and the IC50 [26] was 141 nM. The IC50 [2] was 1.12 nM, the IC50 [3] was 2.62 nM and the half-life [27] was 4.7 h. For the same compound, the IC50 [28] was 20.3 nM, the IC95 [4] was 114 nM and the IC95 [29] was 33.4 nM. It also gave an IC50 [30] of 9.4 nM, an IC50 [31] of 35.8 nM and an IC95 [5] of 22.6 nM. The IC50 [32] was 7.9 nM, the IC50 [33] was > 1000 nM and the IC95 [34] was 102 nM.
CS(=O)(=O)c1ccc2c(c1)CCN2C(=O)COc1ccc(Cl)c(Oc2cc(Cl)cc(C#N)c2)c1 gave an IC50 [1] of 0.86 nM, an IC50 [2] of 0.33 nM and an IC50 [3] of 1.7 nM. It also gave an IC95 [4] of 29.7 nM, an IC95 [29] of 5.26 nM and an IC95 [5] of 3.68 nM. For the same compound, the IC95 [34] was 14.3 nM.
N#Cc1cc(Cl)cc(Oc2cc(OCc3nc4ccccc4s3)ccc2Cl)c1 showed an IC50 [1] of 19.3 nM, an IC50 [2] of 79.2 nM and an IC50 [3] of 54.9 nM. It also gave an IC95 [4] of 1250 nM and an IC95 [5] of 312 nM.
For NS(=O)(=O)c1ccc(NC(=O)COc2cccc(Oc3ccccc3)c2)c(Cl)c1, the IC50 [1] was 51.7 nM, the IC50 [2] was 192 nM and the IC50 [3] was 722 nM.
N#Cc1cc(Cl)cc(Oc2cc(OCc3nc4cccc(Cl)c4s3)ccc2Cl)c1 gave an IC50 [1] of 3.06 nM, an IC50 [2] of 5.98 nM and an IC50 [3] of 5.15 nM. For the same compound, the IC95 [4] was 1250 nM and the IC95 [5] was 156 nM.
In the case of Cc1cc(S(N)(=O)=O)ccc1NC(=O)COc1ccc(Cl)cc1C(=O)c1cc(Cl)cc(C#N)c1, the IC50 [1] is reported as 2.16 nM, the IC50 [2] is reported as 3.16 nM and the IC50 [3] is reported as 2.48 nM. The IC95 [4] was 30.5 nM, the IC95 [29] was 6.98 nM and the IC95 [5] was 2.65 nM. For the same compound, the IC95 [34] was 3.28 nM.
For N#Cc1cc(Cl)cc(Oc2cc(OCC(=O)Nc3ccc(S(N)(=O)=O)cc3Cl)ccc2Cl)c1, the IC50 [1] was 0.14 nM, the IC50 [2] was 0.21 nM and the IC50 [3] was 0.28 nM. For the same compound, the IC95 [4] was 23.9 nM, the IC95 [29] was 9.52 nM and the IC95 [5] was 7.56 nM. It also gave an IC95 [34] of 14.8 nM.
N#Cc1cc(Cl)cc(Oc2cc(OCc3nc4cccc(Cl)c4[nH]3)ccc2Cl)c1 showed an IC50 [1] of 3.2 nM, an IC50 [2] of 7.3 nM and an IC50 [3] of 50 nM. It also gave an IC95 [4] of 2780 nM and an IC95 [5] of 103 nM.
